According to the CheMixHub viscosity set:
Where “and” joins values, the source holds several entries; their conditions need not be identical. Equal values may be shown once.

Tests used:
[1] = xn = mol fraction of the nth substance listed

NN
viscosity [mPa·s]
Settings | 293.15 K | 303 K | 313 K
101 kPa | – | 0.85 | 0.75
101.3 kPa | 0.94 | – | –

CNN
Settings | viscosity [mPa·s]
293.15 K, 101.3 kPa | 0.96

CCC(=O)O
viscosity
Settings | 293.15 K | 298.15 K | 303.15 K | 313.15 K | 318.15 K | 323.15 K
101 kPa | 1.1 mPa·s and 1.07 mPa·s and 1.102 mPa·s | – | – | – | – | 0.75 mPa·s
101.33 kPa | 1.103 mPa·s and 1.156 mPa·s and 1.101 mPa·s | 1.03 mPa·s | 0.96 mPa·s and 0.944 mPa·s | 0.8453 mPa·s and 0.901 mPa·s and 0.84 mPa·s | 0.783 mPa·s | 0.8102 mPa·s

CCCCCCCCCCCCCC[P+](CCCCCC)(CCCCCC)CCCCCC.c1c[n-]nn1 + COCCOCCOCCOCCOC
viscosity [mPa·s], [1], 100 kPa
Settings | 293.15 K | 298.15 K | 303.15 K | 308.15 K | 313.15 K | 318.15 K | 323.15 K
x1 = 0.499 | 80 | 65 | 53 | – | – | – | –
x1 = 0.602 | 118 | 93 | 74 | 62 | 51 | – | –
x1 = 0.69 | 172 | 134 | 106 | 85 | 69 | 57 | –
x1 = 0.793 | 250 | 190 | 147 | 116 | 93 | 76 | 63
x1 = 0.878 | 358 | 266 | 201 | 156 | 123 | 99 | 81
x1 = 0.917 | 400 | 294 | 221 | 170 | 133 | 106 | 86

Nc1cccc(Cl)c1 + CCCCCCCCO
viscosity [mPa·s], [1], 101 kPa
Settings | x1 = 0.1441 | x1 = 0.2748 | x1 = 0.3937 | x1 = 0.5026 | x1 = 0.6025 | x1 = 0.6945 | x1 = 0.7795 | x1 = 0.8584 | x1 = 0.9317
303.15 K | 6.059 | 5.754 | 5.485 | 5.247 | 5.034 | 4.844 | 4.674 | 4.519 | 4.379
308.15 K | 5.155 | 4.924 | 4.723 | 4.547 | 4.391 | 4.253 | 4.131 | 4.02 | 3.924
313.15 K | 4.409 | 4.229 | 4.076 | 3.941 | 3.823 | 3.721 | 3.63 | 3.551 | 3.483
318.15 K | 3.856 | 3.697 | 3.564 | 3.448 | 3.347 | 3.258 | 3.181 | 3.114 | 3.06

Nc1cccc(Cl)c1 + Brc1ccccc1
[1], 100 kPa
Settings | viscosity [mPa·s]
313.15 K, x1 = 0.6782 | 2.875
318.15 K, x1 = 0.0902 | 1.155

CCCOC(=O)CC + CCCCCC
[1], 298.15 K, 101.33 kPa
Settings | viscosity [mPa·s]
x1 = 0.0581 | 0.299
x1 = 0.1227 | 0.31
x1 = 0.2151 | 0.33
x1 = 0.3111 | 0.355
x1 = 0.3983 | 0.379
x1 = 0.4343 | 0.389
x1 = 0.4898 | 0.401
x1 = 0.5466 | 0.421
x1 = 0.586 | 0.433
x1 = 0.68 | 0.465
x1 = 0.8894 | 0.557
x1 = 0.9133 | 0.573

NN + O
[1]
Settings | viscosity [mPa·s]
293.15 K, 101.3 kPa, x1 = 0.0526 | 1.11
293.15 K, 101.3 kPa, x1 = 0.1045 | 1.26
293.15 K, 101.3 kPa, x1 = 0.1502 | 1.4
293.15 K, 101.3 kPa, x1 = 0.2047 | 1.57
293.15 K, 101.3 kPa, x1 = 0.3013 | 1.8
293.15 K, 101.3 kPa, x1 = 0.3512 | 1.88
293.15 K, 101.3 kPa, x1 = 0.3967 | 1.96
293.15 K, 101.3 kPa, x1 = 0.4526 | 1.92
293.15 K, 101.3 kPa, x1 = 0.4938 | 1.89
293.15 K, 101.3 kPa, x1 = 0.5997 | 1.71
293.15 K, 101.3 kPa, x1 = 0.7032 | 1.51
293.15 K, 101.3 kPa, x1 = 0.8022 | 1.28
293.15 K, 101.3 kPa, x1 = 0.8961 | 1.11
303 K, 101 kPa, x1 = 0.1 | 1.009
303 K, 101 kPa, x1 = 0.2 | 1.181
303 K, 101 kPa, x1 = 0.3 | 1.357
303 K, 101 kPa, x1 = 0.4 | 1.364
303 K, 101 kPa, x1 = 0.55 | 1.43
303 K, 101 kPa, x1 = 0.6 | 1.41
303 K, 101 kPa, x1 = 0.7 | 1.34
303 K, 101 kPa, x1 = 0.8 | 1.21
303 K, 101 kPa, x1 = 0.9 | 1.02
313 K, 101 kPa, x1 = 0.1 | 0.869
313 K, 101 kPa, x1 = 0.2 | 0.989
313 K, 101 kPa, x1 = 0.3 | 1.138
313 K, 101 kPa, x1 = 0.4 | 1.148
313 K, 101 kPa, x1 = 0.55 | 1.19
313 K, 101 kPa, x1 = 0.6 | 1.17
313 K, 101 kPa, x1 = 0.7 | 1.1
313 K, 101 kPa, x1 = 0.8 | 0.98
313 K, 101 kPa, x1 = 0.9 | 0.83
